We go through 33 compounds from patent US11661431B2, “Thienopyrrole compounds” (Gilead Sciences, Inc., priority 2021, dated 2023).

SMILES strings stand for the structures.

The target of one experiment is TLR7 (Homo sapiens (Human), UniProt Q9NYK1). Briefly: TLR7 human peripheral blood mononuclear cell (PBMC) cell-based assay (GS-986 as agonist; IL-6 and IFNα readout). Conditions: human PBMCs, TLR7 agonist GS-986 at 400 nM, 6 hours, antagonist potency; read-out: TLR-7 EC50. The procedure, abridged: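 Human PBMCs (100,000 cells/well) preincubated 1 h at 37 °C with antagonist in 10-point dose response, then stimulated with TLR7 agonist for a further 6 h at 37 °C, 5% CO2. Supernatant IL-6 and IFNα measured by electrochemiluminescence immunoassay.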
TLR7, sequence (Q9NYK1 27-1049): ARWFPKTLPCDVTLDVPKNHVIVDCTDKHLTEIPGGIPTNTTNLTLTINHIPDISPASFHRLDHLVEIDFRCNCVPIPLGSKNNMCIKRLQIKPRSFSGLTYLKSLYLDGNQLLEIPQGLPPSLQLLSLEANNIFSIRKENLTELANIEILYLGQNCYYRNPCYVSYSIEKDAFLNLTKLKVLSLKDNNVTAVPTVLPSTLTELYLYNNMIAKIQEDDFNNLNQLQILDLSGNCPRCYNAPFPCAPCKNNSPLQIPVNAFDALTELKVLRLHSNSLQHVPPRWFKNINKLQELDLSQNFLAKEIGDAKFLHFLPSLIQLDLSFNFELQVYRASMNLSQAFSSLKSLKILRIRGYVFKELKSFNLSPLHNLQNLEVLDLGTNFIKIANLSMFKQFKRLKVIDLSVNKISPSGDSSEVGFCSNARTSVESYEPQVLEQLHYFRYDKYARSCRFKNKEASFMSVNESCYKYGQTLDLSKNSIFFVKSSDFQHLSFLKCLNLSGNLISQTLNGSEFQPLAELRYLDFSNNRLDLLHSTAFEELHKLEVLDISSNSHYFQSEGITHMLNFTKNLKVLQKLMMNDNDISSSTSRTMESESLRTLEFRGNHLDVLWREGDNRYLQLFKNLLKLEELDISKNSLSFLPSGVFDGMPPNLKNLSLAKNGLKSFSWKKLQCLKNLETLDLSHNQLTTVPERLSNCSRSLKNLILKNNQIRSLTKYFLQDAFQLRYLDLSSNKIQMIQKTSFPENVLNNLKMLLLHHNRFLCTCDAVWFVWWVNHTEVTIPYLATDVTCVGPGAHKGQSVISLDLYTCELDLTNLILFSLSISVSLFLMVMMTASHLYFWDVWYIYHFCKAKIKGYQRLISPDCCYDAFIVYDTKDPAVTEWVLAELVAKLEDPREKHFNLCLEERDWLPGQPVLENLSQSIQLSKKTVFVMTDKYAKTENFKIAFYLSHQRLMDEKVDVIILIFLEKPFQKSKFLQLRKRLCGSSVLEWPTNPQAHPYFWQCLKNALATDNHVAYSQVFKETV

For the next experiment, the target named is TLR8 (Homo sapiens (Human), UniProt Q9NR97). Put plainly: TLR8 human peripheral blood mononuclear cell (PBMC) cell-based assay (Compound A as agonist; TNFα and IL12p40 readout). The settings on record: human PBMCs, TLR8 agonist Compound A at 800 nM, 6 hours, antagonist potency; read-out: TLR-8 EC50.
TLR8, sequence (Q9NR97 27-1041): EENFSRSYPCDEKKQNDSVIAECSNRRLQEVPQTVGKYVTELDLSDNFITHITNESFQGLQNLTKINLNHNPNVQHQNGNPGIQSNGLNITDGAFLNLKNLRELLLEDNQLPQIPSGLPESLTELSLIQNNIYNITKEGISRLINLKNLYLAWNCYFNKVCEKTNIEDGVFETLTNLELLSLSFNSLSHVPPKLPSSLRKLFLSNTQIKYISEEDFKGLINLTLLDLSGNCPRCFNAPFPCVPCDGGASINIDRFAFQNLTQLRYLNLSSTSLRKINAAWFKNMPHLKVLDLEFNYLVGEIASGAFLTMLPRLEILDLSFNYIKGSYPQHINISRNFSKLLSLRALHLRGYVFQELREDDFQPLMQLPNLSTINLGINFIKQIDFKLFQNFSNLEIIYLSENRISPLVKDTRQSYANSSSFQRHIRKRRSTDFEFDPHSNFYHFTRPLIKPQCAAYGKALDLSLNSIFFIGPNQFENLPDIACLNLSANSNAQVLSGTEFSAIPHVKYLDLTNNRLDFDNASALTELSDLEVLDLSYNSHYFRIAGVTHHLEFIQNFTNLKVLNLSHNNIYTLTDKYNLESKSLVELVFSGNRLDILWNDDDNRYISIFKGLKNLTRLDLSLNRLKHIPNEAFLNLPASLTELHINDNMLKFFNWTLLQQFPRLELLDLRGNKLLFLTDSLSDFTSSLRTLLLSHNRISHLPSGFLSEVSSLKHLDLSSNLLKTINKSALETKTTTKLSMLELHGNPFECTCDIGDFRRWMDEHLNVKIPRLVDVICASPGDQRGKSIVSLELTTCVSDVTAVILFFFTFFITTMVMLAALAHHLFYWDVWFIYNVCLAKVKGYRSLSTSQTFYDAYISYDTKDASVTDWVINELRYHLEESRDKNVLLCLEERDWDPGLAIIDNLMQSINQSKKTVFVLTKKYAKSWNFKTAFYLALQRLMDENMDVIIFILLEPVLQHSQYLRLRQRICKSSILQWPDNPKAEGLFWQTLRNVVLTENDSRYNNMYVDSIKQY

As a reminder, the EC50 is the concentration giving half of the maximal effect. With `Cc1c(-c2[nH]c3sc(C4C[C@@H]5C[C@H]4CC5N4CCS(=N)(=O)CC4)c(C)c3c2C(C)C)cn2ncnc2c1C` (stereo partly drawn) [Example 255], the half-maximal effective concentration (EC50) on TLR7 turned out to be 1.22 nM; at TLR8, 21.4 nM.

As to `Cc1c(-c2[nH]c3sc(C4C[C@@H]5C[C@H]4CC5N4CCS(=O)(=O)CC4)c(C)c3c2C(C)C)cn2ncnc2c1C` (stereo partly drawn) [Example 256], the EC50 at TLR7 stood at 2.31 nM; on TLR8, 29.2 nM.

Regarding `Cc1c(-c2[nH]c3sc(C4C[C@@H]5C[C@H]4CC5N4CCNC(=O)C4)c(C)c3c2C(C)C)cn2ncnc2c1C` (stereo partly drawn) [Example 257], the 50% effective concentration (EC50) at TLR7 is 1.29 nM; at TLR8 it was 7.58 nM.

Regarding `Cc1cc(-c2[nH]c3sc(C4CCNCC4)c(CO)c3c2C(C)C)cn2ncnc12` [Example 258, (4-isopropyl-5-(8-methyl-[1,2,4]triazolo[1,5-a]pyridin-6-yl)-2-(piperidin-4-yl)-6H-thieno[2,3-b]pyrrol-3-yl)methanol], the concentration for a half-maximal effect (EC50) at TLR7 was 0.89 nM; on TLR8, 13.6 nM.

In the case of `COCc1c(C2CCNCC2)sc2[nH]c(-c3cc(C)c4ncnn4c3)c(C(C)C)c12` [Example 259, 4-isopropyl-3-(methoxymethyl)-5-(8-methyl-[1,2,4]triazolo[1,5-a]pyridin-6-yl)-2-(piperidin-4-yl)-6H-thieno[2,3-b]pyrrole], the EC50 on TLR7 came out at 0.15 nM; at TLR8 it was 3.59 nM.

As for `Cc1cc(-c2[nH]c3sc(C4CCN(C(=O)[C@H]5COCCN5)CC4)c(CO)c3c2C(C)C)cn2ncnc12` [Example 260, (R)-(4-(3-(hydroxymethyl)-4-isopropyl-5-(8-methyl-[1,2,4]triazolo[1,5-a]pyridin-6-yl)-6H-thieno[2,3-b]pyrrol-2-yl)piperidin-1-yl)(morpholin-3-yl)methanone], the 50% effective concentration (EC50) at TLR7 came to 0.31 nM; at TLR8, 27.3 nM.

As to `Cc1c(-c2[nH]c3sc([C@@H]4C[C@@H]5C[C@H]4CN5CC(=O)O)c(C)c3c2C(C)C)cn2ncnc2c1C` [Example 264, 2-((1S,4R,5R)-5-(5-(7,8-dimethyl-[1,2,4]triazolo[1,5-a]pyridin-6-yl)-4 isopropyl-3-methyl-6H-thieno[2,3-b]pyrrol-2-yl)-2-azabicyclo[2.2.1]heptan-2-yl)acetic acid], the concentration giving a half-maximal response (EC50) at TLR7 amounted to 2.52 nM; at TLR8, 13.7 nM.

Turning to `Cc1c(-c2[nH]c3sc([C@@H]4C[C@@H]5C[C@H]4CN5CC(=O)N4CC(O)C4)c(C)c3c2C(C)C)cn2ncnc2c1C` [Example 265, 2-((1S,4R,5R)-5-(5-(7,8-dimethyl-[1,2,4]triazolo[1,5-a]pyridin-6-yl)-4 isopropyl-3-methyl-6H-thieno[2,3-b]pyrrol-2-yl)-2-azabicyclo[2.2.1]heptan-2-yl)-1-(3-hydroxyazetidin-1-yl)ethan-1-one], the EC50 is 0.97 nM on TLR7 and 0.83 nM on TLR8.

`Cc1c(-c2[nH]c3sc([C@@H]4C[C@@H]5C[C@H]4CN5CC(=O)N(C)CCO)c(C)c3c2C(C)C)cn2ncnc2c1C` [Example 266]: the half-maximal effective concentration (EC50) at TLR7 is 1.27 nM; at TLR8, 0.33 nM.

For the compound `Cc1c(-c2[nH]c3sc([C@@H]4C[C@@H]5C[C@H]4CN5CC(=O)NCCO)c(C)c3c2C(C)C)cn2ncnc2c1C` [Example 267], the concentration giving a half-maximal response (EC50) on TLR7 was 0.47 nM; at TLR8 it was 0.15 nM.

For `Cc1c(-c2[nH]c3sc(C4C[C@@H]5C[C@H]4CN5CC(=O)N4CCC4)c(C)c3c2C(C)C)cn2ncnc2c1C` (stereo partly drawn) [Example 268], the half-maximal effective concentration (EC50) was less than 0.05 nM at TLR7 and 0.24 nM on TLR8.

With `Cc1c(-c2[nH]c3sc([C@@H]4C[C@@H]5C[C@H]4CN5CC(=O)N[C@H]4C[C@@H](O)C4)c(C)c3c2C(C)C)cn2ncnc2c1C` [Example 269], the figures for the EC50 on TLR7 and at TLR8 were 0.3 nM and 0.28 nM, respectively.

Regarding `Cc1c(-c2[nH]c3sc([C@@H]4C[C@@H]5C[C@H]4CN5CC(=O)N[C@H]4C[C@H](O)C4)c(C)c3c2C(C)C)cn2ncnc2c1C` [Example 270], the EC50 at TLR7 came out at 0.64 nM; on TLR8, 0.59 nM.

In the case of `Cc1c(-c2[nH]c3sc([C@@H]4C[C@@H]5C[C@H]4CN5CC(=O)NC45CC(O)(C4)C5)c(C)c3c2C(C)C)cn2ncnc2c1C` [Example 271], the figures for the EC50 at TLR7 and at TLR8 were 0.49 nM and 0.12 nM, respectively.

On to `COCCNC(=O)CN1C[C@@H]2C[C@H]1C[C@H]2c1sc2[nH]c(-c3cn4ncnc4c(C)c3C)c(C(C)C)c2c1C` [Example 272], for which the values for the half-maximal effective concentration (EC50) on TLR7 and at TLR8 were 2.13 nM and 1.19 nM, respectively.

Regarding `Cc1c(-c2[nH]c3sc([C@@H]4C[C@@H]5C[C@H]4CN5CC(=O)NC[C@@H](F)C(C)(C)O)c(C)c3c2C(C)C)cn2ncnc2c1C` [Example 273], the concentration giving a half-maximal response (EC50) was 1.24 nM on TLR7 and 1.01 nM at TLR8.

`Cc1c(-c2[nH]c3sc([C@@H]4C[C@@H]5C[C@H]4CN5CC(=O)NC4COC4)c(C)c3c2C(C)C)cn2ncnc2c1C` [Example 274]: the EC50 on TLR7 amounted to 1.54 nM; at TLR8, 1.23 nM.

In the case of `Cc1c(-c2[nH]c3sc([C@H]4C[C@@H]5C[C@H]4CN5)c(C)c3c2C(C)C)cn2ncnc2c1C` [Example 275, 2-((1S,4R,5S)-2-azabicyclo[2.2.1]heptan-5-yl)-5-(7,8-dimethyl-[1,2,4]triazolo[1,5-a]pyridin-6-yl)-4-isopropyl-3-methyl-6H-thieno[2,3-b]pyrrole], the EC50 came out at 0.4 nM on TLR7 and 2.91 nM on TLR8.

For `CCc1c(C2CCNCC2)sc2[nH]c(-c3cc(C)c4ncnn4c3)c(C(C)C)c12` [Example 277], the concentration giving a half-maximal response (EC50) on TLR7 was 0.06 nM; at TLR8, 20.1 nM.

For `Cc1c(CC2CCNCC2)sc2[nH]c(-c3cc(C)c4ncnn4c3)c(C(C)C)c12` [Example 278], the results for the EC50 at TLR7 and at TLR8 were 0.17 nM and 0.8 nM, respectively.

`Cc1c(-c2[nH]c3sc(C4CCN(C(=O)[C@H]5CO[C@H](C)CN5)CC4)c(C)c3c2C(C)C)cn2ncnc2c1C` [Example 279, [4-[5-(7,8-dimethyl-[1,2,4]triazolo[1,5-a]pyridin-6-yl)-4-isopropyl-3-methyl-6H-thieno[2,3-b]pyrrol-2-yl]-1-piperidyl]-[(3R,6R)-6-methylmorpholin-3-yl]methanone]: the EC50 on TLR7 was found to be 0.54 nM; at TLR8, 13.6 nM.

Turning to `Cc1c(-c2[nH]c3sc(C4CCN(C(=O)[C@H]5CO[C@@H](C)CN5)CC4)c(C)c3c2C(C)C)cn2ncnc2c1C` [Example 280], the EC50 at TLR7 came to 1.96 nM; at TLR8, 41.2 nM.

On to `Cc1c(-c2[nH]c3sc(C4CCN(C(=O)[C@@H]5NCCO[C@H]5C)CC4)c(C)c3c2C(C)C)cn2ncnc2c1C` [Example 281], for which the half-maximal effective concentration (EC50) at TLR7 amounted to 2.17 nM; on TLR8 it was 13.8 nM.

`Cc1c(-c2[nH]c3sc(C4CCN(C(=O)[C@@H]5CC(F)(F)CCN5)CC4)c(C)c3c2C(C)C)cn2ncnc2c1C` [Example 282]: the values for the EC50 at TLR7 and on TLR8 were 1.19 nM and 19.5 nM, respectively.

In the case of `Cc1c(-c2[nH]c3sc(C4CCN(C(=O)C5COC(C(F)(F)F)CN5)CC4)c(C)c3c2C(C)C)cn2ncnc2c1C` (stereo not drawn) [Example 283], the EC50 on TLR7 was found to be 2.65 nM; on TLR8, 139 nM.

Take `Cc1c(-c2[nH]c3sc(C4CCN(C(=O)[C@H]5C[C@@H](C(F)(F)F)CCN5)CC4)c(C)c3c2C(C)C)cn2ncnc2c1C` [Example 284]: the 50% effective concentration (EC50) at TLR7 came out at 0.32 nM; at TLR8, 4.91 nM.

Regarding `Cc1c(-c2[nH]c3sc(C4CCN(C(=O)[C@H]5CO[C@@H](C(F)(F)F)CN5)CC4)c(C)c3c2C(C)C)cn2ncnc2c1C` [Example 285], the EC50 on TLR7 worked out at 3.2 nM; on TLR8 it was 129 nM.

Turning to `Cc1c(-c2[nH]c3sc(C4CCN(C5CCCNC5=O)CC4)c(C)c3c2C(C)C)cn2ncnc2c1C` (stereo not drawn) [Example 286, 3-[4-[5-(7,8-dimethyl-[1,2,4]triazolo[1,5-a]pyridin-6-yl)-4-isopropyl-3-methyl-6H-thieno[2,3-b]pyrrol-2-yl]-1-piperidyl]piperidin-2-one], the EC50 at TLR7 was 0.94 nM; at TLR8, 9.39 nM.

Turning to `Cc1c(-c2[nH]c3sc(C4CCN(C5CCNC5=O)CC4)c(C)c3c2C(C)C)cn2ncnc2c1C` (stereo not drawn) [Example 287, 3-[4-[5-(7,8-dimethyl-[1,2,4]triazolo[1,5-a]pyridin-6-yl)-4-isopropyl-3-methyl-6H-thieno[2,3-b]pyrrol-2-yl]-1-piperidyl]pyrrolidin-2-one], the concentration giving a half-maximal response (EC50) at TLR7 amounted to 0.43 nM; on TLR8, 12.4 nM.

For the compound `Cc1c(-c2[nH]c3sc(C4CCN(C5CCN(C)C5=O)CC4)c(C)c3c2C(C)C)cn2ncnc2c1C` (stereo not drawn) [Example 288], the values for the EC50 at TLR7 and at TLR8 were 2.74 nM and 22.6 nM, respectively.

For the compound `Cc1c(-c2[nH]c3sc(C4CCN(CC5CCN(C)C5=O)CC4)c(C)c3c2C(C)C)cn2ncnc2c1C` (stereo not drawn) [Example 289], the concentration for a half-maximal effect (EC50) at TLR7 worked out at 0.72 nM; at TLR8, 2.33 nM.

For `Cc1c(-c2[nH]c3sc([C@@H]4C[C@@H]5C[C@H]4CN5C4CCS(=O)(=O)C4)c(C)c3c2C(C)C)cn2ncnc2c1C` (stereo partly drawn) [Example 294, 3-[(1S,4R)-5-[5-(7,8-dimethyl-[1,2,4]triazolo[1,5-a]pyridin-6-yl)-4-isopropyl-3-methyl-6H-thieno[2,3-b]pyrrol-2-yl]-2-azabicyclo[2.2.1]heptan-2-yl]thiolane 1,1-dioxide], the EC50 was 0.71 nM at TLR7 and 2.77 nM on TLR8.

As for `Cc1c(-c2[nH]c3sc(C4CCN(C(=O)[C@H]5C[C@@]6(CN(CCO)CCO6)C5)CC4)c(C)c3c2C(C)C)cn2ncnc2c1C` [Example 295, [4-[5-(7,8-dimethyl-[1,2,4]triazolo[1,5-a]pyridin-6-yl)-4-isopropyl-3-methyl-6H-thieno[2,3-b]pyrrol-2-yl]-1-piperidyl]-[8-(2-hydroxethyl)-5-oxa-8-azaspiro[3.5]nonan-2-yl]methanone], the EC50 at TLR7 came out at 0.06 nM; on TLR8, 18.5 nM.
